Data taken from PubChem BioAssay (NCI).
Values joined by “and” are separate entries in the source; they are usually repeats but may differ in a detail not shown here. Equal values may be shown once.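 96-well plates; 48 h exposure; 5 concentrations. Endpoints by linear interpolation between flanking doses. Not reached: highest tested concentration assigned. GI50 = concentration required for 50% inhibition of growth. TGI denotes the concentration required for complete inhibition of growth.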

Legend:
Test in all cases: NCI anticancer screen, dose series, 48 h
EKVX NSCLC = test system: EKVX NSCLC
MOLT-4 leukemia = test system: MOLT-4 leukemia
SW-620 colon = test system: SW-620 colon
M14 melanoma = test system: M14 melanoma
A549 NSCLC = test system: A549 NSCLC
CCRF-CEM leukemia = test system: CCRF-CEM leukemia
HL-60(TB) leukemia = test system: HL-60(TB) leukemia
HCT-15 colon = test system: HCT-15 colon
SF-295 CNS = test system: SF-295 CNS
OVCAR-3 ovarian = test system: OVCAR-3 ovarian
MDA-MB-435 = test system: MDA-MB-435
COLO 205 colon = test system: COLO 205 colon
ACHN renal = test system: ACHN renal
PC-3 prostate = test system: PC-3 prostate
DU-145 prostate = test system: DU-145 prostate
SF-268 CNS = test system: SF-268 CNS
HS 578T breast = test system: HS 578T breast
NCI-H226 lung = test system: NCI-H226 lung
CAKI-1 renal = test system: CAKI-1 renal
KM12 colon = test system: KM12 colon
RPMI-8226 leukemia = test system: RPMI-8226 leukemia
HCC-2998 colon = test system: HCC-2998 colon
MCF7 breast = test system: MCF7 breast
IGROV1 ovarian = test system: IGROV1 ovarian
SNB-75 CNS = test system: SNB-75 CNS
UACC-62 melanoma = test system: UACC-62 melanoma
NCI-H522 lung = test system: NCI-H522 lung
SK-MEL-28 melanoma = test system: SK-MEL-28 melanoma
HOP-92 NSCLC = test system: HOP-92 NSCLC
MDA-MB-231 breast = test system: MDA-MB-231 breast
OVCAR-4 ovarian = test system: OVCAR-4 ovarian
RXF 393 renal = test system: RXF 393 renal
TK-10 renal = test system: TK-10 renal
HT29 colon = test system: HT29 colon
OVCAR-5 ovarian = test system: OVCAR-5 ovarian
SK-MEL-5 melanoma = test system: SK-MEL-5 melanoma
U251 CNS = test system: U251 CNS
SR leukemia = test system: SR leukemia
HOP-62 NSCLC = test system: HOP-62 NSCLC
NCI-H23 lung = test system: NCI-H23 lung
786-0 renal = test system: 786-0 renal
SK-OV-3 ovarian = test system: SK-OV-3 ovarian
T-47D breast = test system: T-47D breast
NCI-H460 lung = test system: NCI-H460 lung
MDA-N = test system: MDA-N
NCI/ADR-RES ovarian = test system: NCI/ADR-RES ovarian
UACC-257 melanoma = test system: UACC-257 melanoma
HCT-116 colon = test system: HCT-116 colon
OVCAR-8 ovarian = test system: OVCAR-8 ovarian
SNB-19 CNS = test system: SNB-19 CNS
SN12C renal = test system: SN12C renal
SK-MEL-2 melanoma = test system: SK-MEL-2 melanoma
K-562 leukemia = test system: K-562 leukemia
BT-549 breast = test system: BT-549 breast
MALME-3M melanoma = test system: MALME-3M melanoma
UO-31 renal = test system: UO-31 renal

**Q.** `CN(C)CC1CCCCCCCCCCC1=O` (stereo not drawn) was tested. Which GI50 (EKVX NSCLC) did it give?
**A.** > 100 µM

**Q.** What about the TGI (EKVX NSCLC) of the same compound?
**A.** > 100 µM

**Q.** And the GI50 (MOLT-4 leukemia)?
**A.** > 100 µM

**Q.** And the TGI (MOLT-4 leukemia)?
**A.** > 100 µM

**Q.** And the GI50 (SW-620 colon)?
**A.** > 100 µM

**Q.** What about the TGI (SW-620 colon) of the same compound?
**A.** > 100 µM

**Q.** What about the GI50 (M14 melanoma) of the same compound?
**A.** > 100 µM

**Q.** And the TGI (M14 melanoma)?
**A.** > 100 µM

**Q.** And the GI50 (A549 NSCLC)?
**A.** > 100 µM

**Q.** What about the TGI (A549 NSCLC) of the same compound?
**A.** > 100 µM

**Q.** What about the GI50 (CCRF-CEM leukemia) of the same compound?
**A.** > 10 µM and 99.4 µM

**Q.** And the TGI (CCRF-CEM leukemia)?
**A.** > 100 µM

**Q.** What about the GI50 (HL-60(TB) leukemia) of the same compound?
**A.** > 100 µM

**Q.** And the TGI (HL-60(TB) leukemia)?
**A.** > 100 µM

**Q.** And the GI50 (HCT-15 colon)?
**A.** > 100 µM

**Q.** And the TGI (HCT-15 colon)?
**A.** > 100 µM

**Q.** What about the TGI (SF-295 CNS) of the same compound?
**A.** > 10 µM

**Q.** What about the GI50 (OVCAR-3 ovarian) of the same compound?
**A.** > 100 µM

**Q.** What about the TGI (OVCAR-3 ovarian) of the same compound?
**A.** > 100 µM

**Q.** What about the GI50 (MDA-MB-435) of the same compound?
**A.** > 100 µM

**Q.** What about the TGI (MDA-MB-435) of the same compound?
**A.** > 100 µM

**Q.** And the GI50 (COLO 205 colon)?
**A.** > 100 µM

**Q.** And the TGI (COLO 205 colon)?
**A.** > 100 µM

**Q.** And the GI50 (ACHN renal)?
**A.** > 100 µM

**Q.** What about the TGI (ACHN renal) of the same compound?
**A.** > 100 µM

**Q.** What about the GI50 (PC-3 prostate) of the same compound?
**A.** > 100 µM

**Q.** And the TGI (PC-3 prostate)?
**A.** > 100 µM

**Q.** What about the GI50 (DU-145 prostate) of the same compound?
**A.** > 100 µM

**Q.** And the TGI (DU-145 prostate)?
**A.** > 100 µM

**Q.** And the GI50 (SF-268 CNS)?
**A.** > 100 µM

**Q.** What about the TGI (SF-268 CNS) of the same compound?
**A.** > 100 µM

**Q.** What about the TGI (HS 578T breast) of the same compound?
**A.** > 100 µM

**Q.** And the GI50 (NCI-H226 lung)?
**A.** > 100 µM

**Q.** And the TGI (NCI-H226 lung)?
**A.** > 100 µM

**Q.** And the GI50 (CAKI-1 renal)?
**A.** > 100 µM

**Q.** And the TGI (CAKI-1 renal)?
**A.** > 100 µM

**Q.** What about the GI50 (KM12 colon) of the same compound?
**A.** > 10 µM and 78.3 µM

**Q.** And the TGI (KM12 colon)?
**A.** > 100 µM

**Q.** And the TGI (RPMI-8226 leukemia)?
**A.** > 100 µM

**Q.** What about the TGI (HCC-2998 colon) of the same compound?
**A.** > 10 µM

**Q.** What about the GI50 (MCF7 breast) of the same compound?
**A.** > 100 µM

**Q.** And the TGI (MCF7 breast)?
**A.** > 100 µM

**Q.** And the TGI (IGROV1 ovarian)?
**A.** > 100 µM

**Q.** And the TGI (SNB-75 CNS)?
**A.** > 100 µM

**Q.** What about the TGI (UACC-62 melanoma) of the same compound?
**A.** > 100 µM

**Q.** What about the GI50 (NCI-H522 lung) of the same compound?
**A.** > 100 µM

**Q.** And the TGI (NCI-H522 lung)?
**A.** > 100 µM

**Q.** What about the TGI (SK-MEL-28 melanoma) of the same compound?
**A.** > 100 µM

**Q.** What about the GI50 (HOP-92 NSCLC) of the same compound?
**A.** > 100 µM

**Q.** And the TGI (HOP-92 NSCLC)?
**A.** > 100 µM

**Q.** And the TGI (MDA-MB-231 breast)?
**A.** > 10 µM

**Q.** What about the GI50 (OVCAR-4 ovarian) of the same compound?
**A.** > 100 µM

**Q.** And the TGI (OVCAR-4 ovarian)?
**A.** > 100 µM

**Q.** What about the TGI (RXF 393 renal) of the same compound?
**A.** > 10 µM

**Q.** And the GI50 (TK-10 renal)?
**A.** > 100 µM

**Q.** And the TGI (TK-10 renal)?
**A.** > 100 µM

**Q.** And the GI50 (HT29 colon)?
**A.** > 10 µM and 98.4 µM

**Q.** And the TGI (HT29 colon)?
**A.** > 100 µM

**Q.** What about the GI50 (OVCAR-5 ovarian) of the same compound?
**A.** > 100 µM

**Q.** What about the TGI (OVCAR-5 ovarian) of the same compound?
**A.** > 100 µM

**Q.** And the TGI (SK-MEL-5 melanoma)?
**A.** > 100 µM

**Q.** What about the GI50 (U251 CNS) of the same compound?
**A.** > 100 µM

**Q.** And the TGI (U251 CNS)?
**A.** > 100 µM

**Q.** What about the GI50 (SR leukemia) of the same compound?
**A.** > 100 µM

**Q.** And the TGI (SR leukemia)?
**A.** > 100 µM

**Q.** And the GI50 (HOP-62 NSCLC)?
**A.** > 100 µM

**Q.** And the TGI (HOP-62 NSCLC)?
**A.** > 100 µM

**Q.** And the GI50 (NCI-H23 lung)?
**A.** > 100 µM

**Q.** What about the TGI (NCI-H23 lung) of the same compound?
**A.** > 100 µM

**Q.** What about the GI50 (786-0 renal) of the same compound?
**A.** > 100 µM

**Q.** What about the TGI (786-0 renal) of the same compound?
**A.** > 100 µM

**Q.** And the TGI (SK-OV-3 ovarian)?
**A.** > 100 µM

**Q.** What about the GI50 (T-47D breast) of the same compound?
**A.** > 100 µM

**Q.** And the TGI (T-47D breast)?
**A.** > 100 µM

**Q.** And the GI50 (NCI-H460 lung)?
**A.** > 100 µM

**Q.** What about the TGI (NCI-H460 lung) of the same compound?
**A.** > 100 µM

**Q.** What about the GI50 (MDA-N) of the same compound?
**A.** > 100 µM

**Q.** And the TGI (MDA-N)?
**A.** > 100 µM

**Q.** What about the GI50 (NCI/ADR-RES ovarian) of the same compound?
**A.** > 100 µM

**Q.** And the TGI (NCI/ADR-RES ovarian)?
**A.** > 100 µM

**Q.** What about the TGI (UACC-257 melanoma) of the same compound?
**A.** > 10 µM

**Q.** What about the GI50 (HCT-116 colon) of the same compound?
**A.** > 100 µM

**Q.** What about the TGI (HCT-116 colon) of the same compound?
**A.** > 100 µM

**Q.** What about the TGI (OVCAR-8 ovarian) of the same compound?
**A.** > 10 µM

**Q.** What about the GI50 (SNB-19 CNS) of the same compound?
**A.** > 100 µM

**Q.** What about the TGI (SNB-19 CNS) of the same compound?
**A.** > 100 µM

**Q.** What about the GI50 (SN12C renal) of the same compound?
**A.** > 100 µM

**Q.** What about the TGI (SN12C renal) of the same compound?
**A.** > 100 µM

**Q.** What about the GI50 (SK-MEL-2 melanoma) of the same compound?
**A.** > 100 µM

**Q.** And the TGI (SK-MEL-2 melanoma)?
**A.** > 100 µM

**Q.** What about the GI50 (K-562 leukemia) of the same compound?
**A.** > 100 µM

**Q.** And the TGI (K-562 leukemia)?
**A.** > 100 µM

**Q.** What about the GI50 (BT-549 breast) of the same compound?
**A.** > 100 µM

**Q.** And the TGI (BT-549 breast)?
**A.** > 100 µM

**Q.** And the GI50 (MALME-3M melanoma)?
**A.** > 100 µM

**Q.** And the TGI (MALME-3M melanoma)?
**A.** > 100 µM

**Q.** And the GI50 (UO-31 renal)?
**A.** > 100 µM

**Q.** What about the TGI (UO-31 renal) of the same compound?
**A.** > 100 µM
